Measured values: paper PMC12040169 (PLOS Biology, 2025)

Experiment: in vitro
Conditions: human, hela cells, % viability

| Structure (SMILES) | viability at 28.5 h, 10 µM [%] |
| --- | --- |
| COc1ccc(CCCC(=O)Nc2cncc(OC3CCNCC3)n2)cc1OC [CBK028437T] | 87.3 |
| O=C(CCS(=O)(=O)c1ccccc1)Nc1cncc(OC2CCNCC2)n1 [CBK028438T] | 94.1 |
| CN(CC(=O)Nc1cncc(OC2CCNCC2)n1)C(=O)c1ccccc1 [CBK028440T] | 105 |
| O=C(Cc1c[nH]c2ccccc12)Nc1cncc(OC2CCNCC2)n1 [CBK028441T] | 91 |
| CCOC(=O)CNC(=S)N[C@H]1CC[C@@]2(c3cccnc3)CCN(Cc3ccccc3)[C@H]2C1 [CBK028453] | 115 |
| NCCNc1cccc2c1ccn2S(=O)(=O)c1ccccc1 [CBK028470C] | 80.2 |
| CN1CCN(c2cc(C(F)(F)F)c3scc(C(=O)NCCC4=CCCCC4)c3n2)CC1 [CBK028474] | 110 |
| CCCNC(c1ccccc1)c1ccncc1 (stereo not drawn) [CBK028505] | 96.7 |
| CCOC(=O)N1CCC(NCC(C)(C)CN(C)C)CC1 [CBK028516] | 96.2 |
| COc1nc2nonc2nc1OC [CBK028544] | 110 |
| CCN(CC)C(=O)c1c(NS(=O)(=O)c2ccc(C)cc2)sc2c1CCCC2 [CBK028627] | 111 |
| O=C(c1c(NS(=O)(=O)c2ccc3ccccc3c2)sc2c1CCCC2)N1CCOCC1 [CBK028636] | 94.4 |
| COC(=O)c1ccc(NS(=O)(=O)c2cc(Cl)sc2Cl)cc1 [CBK028684] | 107 |
| Cc1nc(-c2nnc3ccc(Cl)nn23)c(Br)[nH]1 [CBK028706B] | 87.5 |
| Nc1nc(Cc2ccc(F)cc2)no1 [CBK028717] | 110 |
| CCOC(=O)c1cc(C(N)=S)c(C)nc1C(F)(F)F [CBK028734] | 92.8 |
| CSc1cccc(NC(=S)N2CCCCC2CCN2CCOCC2)c1 (stereo not drawn) [CBK028765] | 83.9 |
| O=C(NC(=O)N1CCSC1)c1c(Cl)cccc1Cl [CBK028794] | 85.3 |
| CSc1cc(-c2ccc(F)cc2)n[nH]1 [CBK028809] | 123 |
| O=C(Nc1nccs1)c1ncn[nH]1 [CBK028821] | 102 |
| COc1ccc(-c2n[nH]c(N)n2)cc1 [CBK028843] | 116 |
| COCCNC(=O)C(C)SCc1ccccc1 (stereo not drawn) [CBK028889] | 86.1 |
| CCNC(=O)/N=C(/N)Nc1nc2ccccc2s1 [CBK028890] | 72.1 |

| Structure (SMILES) | viability at 28.5 h, 10 µM [%] |
| --- | --- |
| CC(C)Oc1ccc(C(F)(F)F)cc1N [CBK028895C] | 105 |
| CC(C)(C)OC(=O)N[C@@H](Cc1ccccc1)CN(Cc1ccccc1)Cc1ccc(S(=O)(=O)N2CCOC2=O)cc1 [CBK028952] | 86.1 |
| O=C(c1ccc(Br)o1)N1CCc2ccc(S(=O)(=O)N3CCOCC3)cc21 [CBK028953] | 100 |
| O=C(CN1CCOCC1)N1CCN(C(=O)c2ccc(Cl)cc2Cl)CC1 [CBK028992] | 97.7 |
| CC(C)NCC(O)COC1CCC(C(C)(C)C)CC1 (stereo not drawn) [CBK029007C] | 89.2 |
| N#Cc1ccc(CN2C(=O)c3ccccc3C2=O)cc1 [CBK029022] | 100 |
| COC(=O)c1ccc(CN2CCCC2)cc1 [CBK029023] | 106 |
| O=C(Nc1cccc(N2CCNCC2)c1)c1cccnc1 [CBK029414T] | 94.6 |
| O=C(Nc1cccc(N2CCNCC2)c1)c1ccnc2ccccc12 [CBK029416T] | 95.5 |
| O=C(Nc1cccnc1N1CCNCC1)c1ccoc1 [CBK029417T] | 95.4 |
| O=C(Nc1cccnc1N1CCNCC1)c1cc(F)cc(F)c1 [CBK029420T] | 92.3 |
| O=C(Nc1cccnc1N1CCNCC1)c1cccnc1 [CBK029426T] | 120 |
| O=C(Nc1ccc(N2CCNCC2)nc1)c1cnccn1 [CBK029436T] | 126 |
| O=C(Nc1ccc(N2CCNCC2)nc1)c1cccnc1 [CBK029439T] | 95.1 |
| O=C(Nc1ccccc1N1CCNCC1)c1ccoc1 [CBK029442T] | 96.2 |
| COc1ccc(C(=O)Nc2ccccc2N2CCNCC2)cc1 [CBK029447T] | 107 |
| Cn1cccc1C(=O)Nc1ccccc1N1CCNCC1 [CBK029450T] | 95.4 |
| O=C(NCc1ccccc1OC1CCNC1)c1ccccn1 (stereo not drawn) [CBK029464T] | 91.6 |
| Cc1cccc(CN(CCCN)C(=O)Nc2ccc(C(C)(C)C)cc2)n1 [CBK033365C] | 98.3 |
| COc1cc(NC(=O)c2cccnc2)c(Cl)cc1NC(=O)c1ccc(Cl)cc1 [CBK033522] | 98.2 |
| COc1cc(NC(=O)Cn2nc([N+](=O)[O-])c(Cl)c2C)c(OC)cc1Cl [CBK033535] | 97.9 |
| COc1ccc(-c2cc(C(=O)Nc3nc4ccc(S(C)(=O)=O)cc4s3)c3ccccc3n2)cc1 [CBK033551] | 95.9 |
| CCOc1ccc(NC(=O)c2ccc(CN3CCOCC3)cc2)cc1 [CBK033557] | 89.7 |

| Structure (SMILES) | viability at 28.5 h, 10 µM [%] |
| --- | --- |
| COc1ccc(CN2CCN(C(=O)c3ccccc3F)CC2)c(OC)c1 [CBK033601] | 125 |
| COc1cccc(CN2CCN(Cc3cc(OC)cc(OC)c3)CC2)c1 [CBK033622] | 91.2 |
| Cc1ccc(Cl)cc1N(Cc1ccc(C(=O)N2CCC(C)CC2)cc1)S(=O)(=O)c1ccccc1 [CBK033646] | 107 |
| Oc1ccc(SCCCCN2CCCCC2)cc1 [CBK033676] | 110 |
| Cc1ccc2nsnc2c1NC(=O)COc1ccc([N+](=O)[O-])cc1 [CBK033705] | 95.6 |
| O=C(CCN1CCN(CCO)CC1)Nc1ccc(Cl)cc1 [CBK033787] | 101 |
| CC(=O)c1ccc(N(C)C)cc1 [CBK033830] | 106 |
| CCOC(=O)N1CCN(CC(O)COc2cc(C)c(Cl)c(C)c2)CC1 (stereo not drawn) [CBK033833C] | 88.9 |
| CC(Nc1cc(N2CCN(CCO)CC2)ccc1[N+](=O)[O-])c1ccccc1 (stereo not drawn) [CBK033838] | 106 |
| O=C(OCCN1CCOCC1)c1ccccc1I [CBK033860] | 95.4 |
| CCC(=O)c1cc(F)c(N2CCN(C(=O)c3cccs3)CC2)cc1C [CBK033892] | 104 |
| CC(=O)c1ccc(NC(=O)c2cccc(Cl)c2)cc1 [CBK033939] | 89.3 |
| Cc1cc(=O)oc2cc(OC(=O)C(Cc3ccccc3)N3C(=O)c4ccccc4C3=O)ccc12 (stereo not drawn) [CBK033943] | 91.1 |
| COc1cc2c(cc1OC)CN(Cc1ccc(OCc3ccccc3)c(OC)c1)CC2 [CBK033974] | 93 |
| COc1ccc2c(ccn2S(=O)(=O)c2ccc(N3CCNCC3)c(C(F)(F)F)c2)c1 [CBK034033C] | 89.3 |
| Cc1c(Cl)cccc1S(=O)(=O)Nc1ccc(C(=O)O)cc1 [CBK034050] | 86.4 |
| O=C(O)c1ccc(NS(=O)(=O)Cc2ccccc2[N+](=O)[O-])cc1 [CBK034054] | 90.4 |
| Cc1ccc(S(=O)(=O)Nc2ccc(C(=O)O)cc2)cc1 [CBK034060] | 85.3 |
| O=C(O)c1ccc(NS(=O)(=O)Cc2ccccc2)cc1 [CBK034061] | 105 |
| O=C(O)c1ccc(NS(=O)(=O)/C=C/c2ccccc2)cc1 [CBK034062] | 100 |
| O=C(O)c1ccc(NS(=O)(=O)c2ccc(C(F)(F)F)cc2[N+](=O)[O-])cc1 [CBK034063] | 113 |
| O=C(Nc1cccc(N2CCNCC2)c1)c1coc2c1C(=O)CCC2 [CBK034113T] | 87.2 |
| COc1ccc(/C=C(\C)C(=O)Nc2cccc(N3CCNCC3)c2)cc1OC [CBK034115T] | 90.1 |

| Structure (SMILES) | viability at 28.5 h, 10 µM [%] |
| --- | --- |
| Cc1oc(-c2ccccc2)cc1C(=O)Nc1ccc(N2CCNCC2)nc1 [CBK034127T] | 80.3 |
| O=C(/C=C/c1cccnc1)Nc1cccc(N2CCNCC2)c1 [CBK034128T] | 109 |
| O=C(NCc1ccccc1OC1CCNC1)c1ccc(-c2cccc(C(F)(F)F)c2)o1 (stereo not drawn) [CBK034151T] | 101 |
| COc1ccc(/C=C(\C)C(=O)NCc2ccccc2OC2CCNC2)cc1OC (stereo not drawn) [CBK034157T] | 90 |
| Cc1noc(C)c1CS(=O)(=O)Cc1ccc(Cl)cc1 [CBK034194] | 84.9 |
| Cc1noc(C)c1C[S+]([O-])c1ccc(Br)cc1 (stereo not drawn) [CBK034195] | 95.6 |
| O=C(O)c1ccc(CCN2CCCC2)nc1 [CBK034220] | 107 |
| Cc1ccc(NC(=O)CSc2nnc(N)[nH]2)cc1 [CBK034301] | 110 |
| C/C=N\n1c(CO)nnc1CO [CBK034325] | 86.5 |
| CC(=O)Nc1c(C)ccc(S(=O)(=O)N2CCOCC2)c1C [CBK034327] | 98.6 |
| CCOC(=O)c1cccc(NS(=O)(=O)c2cc(F)c(Br)cc2F)c1 [CBK034333] | 89.2 |
| CC(=O)Nc1cc(S(=O)(=O)N2CCOCC2)c(Br)cc1C [CBK034334] | 92.8 |
| CCOC(=O)c1cccc(NS(=O)(=O)c2c(C)noc2C)c1 [CBK034339] | 110 |
| CCOC(=O)c1cccc(NS(=O)(=O)c2ccc(C)c([N+](=O)[O-])c2)c1 [CBK034343] | 84.8 |
| CCN(CC)C(=O)c1ccc(NS(=O)(=O)c2cc(F)c(Br)cc2F)cc1 [CBK034388] | 90.1 |
| CCN(CC)C(=O)c1ccc(NS(=O)(=O)Cc2ccccc2[N+](=O)[O-])cc1 [CBK034396] | 97.1 |
| Cc1noc(C)c1S(=O)(=O)Nc1ccc(C(=O)Nc2ccc(F)cc2)cc1 [CBK034410] | 95.1 |
| CCCCC(O)(Cc1onc(-c2ccccc2)c1C(=O)N(C)C)c1ccc(CN2CCCC2)cc1 (stereo not drawn) [CBK034415T] | 113 |
| CCOC(=O)CNS(=O)(=O)c1ccc(Cl)c(Cl)c1Cl [CBK034428] | 92 |
| CCCc1ccc(S(=O)(=O)NCC(=O)OCC)cc1 [CBK034429] | 113 |
| CCOC(=O)CNS(=O)(=O)c1ccc(-c2ccccc2)cc1 [CBK034435] | 99.5 |
| CCOC(=O)CNS(=O)(=O)c1ccc(F)cc1 [CBK034442] | 92.3 |
| CCOC(=O)CNS(=O)(=O)c1ccc(C(F)(F)F)cc1[N+](=O)[O-] [CBK034446] | 102 |

Same assay, conditions: human, hela cells, % viability, bulk resorufin, single well

| Structure (SMILES) | viability at 28.5 h, 10 µM [%] |
| --- | --- |
| CSc1ccc(C(=O)C(C)(C)N2CCOCC2)cc1 [CBK028870] | 107 |
